Results taken from US7482328B2, “Antimicrobial polypeptide and utilization thereof” (Toagosei Co., Ltd., priority 2002, dated 2009).
Residues, ends and D or L forms follow the SMILES beside them. No end group written: not given here.

Columns and labels:
Type in all cases: cell-based
E. coli = tested on: E. coli
Method: (§1) Regarding the antimicrobial polypeptide of the present invention (samples 1 to 33) and the polypeptides of comparative samples 1 to 3, the antimicrobial activities (minimum inhibitory concentration: MIC) with respect to gram-negative bacteria (E. coli) and gram-positive bacteria (S. aureus) were determined by a liquid medium dilution technique using a 96-well microplate.
(§2) More specifically, liquid bouillon media (“NUTRIENT BROTH Dehydraged” manufactured by DIFCO) in a polypeptide concentration of 500, 250, 125, 62.5, 31.3, 15.6, 7.8, 3.9, 1.9, 1.0 and 0.5 μM were prepared, and filled in a 96-well microplate. On the other hand, bacteria suspension (about 2×10^6 cells/mL) that had been stationary cultured at 37° C. for 18 hours with LB Broth, Lennox (manufactured by DIFCO) were inoculated to each well of the 96-well microplate in an equal amount to that of the pharmaceutical solution (the above-described polypeptide-containing bouillon medium). After inoculation, culture was started in an incubator at 37° C., and it was examined based on the turbidity after 24 hours and 48 hours whether or not bacteria are present. The minimum of the polypeptide concentrations in which no increase in the turbidity caused by bacteria at the time of measurement was observed was defined as MIC in this example.
(§3) The unit of MIC in Table 2 is μM. […]

S. aureus = tested on: S. aureus
Method: as §1, §2, §3

[1] = tested on: gram-negative bacteria (E. coli) and gram-positive bacteria (S. aureus); assay: antimicrobial test of Example 2, results summed up in words; conditions: summary of Table 2, E. coli and S. aureus
Method: as §1, §2

[2] = tested on: Escherichia coli O157:H7 sakai; conditions: O157:H7, 24 h
Method: as §2
Next, regarding the polypeptides of the samples 16, 17, 10, 14, and 20, the same antimicrobial test (MIC measurement test) as in Example 2 was performed with respect to various bacteria (see Table 3), and the antimicrobial spectra of these polypeptides were evaluated.

| Compound | antimicrobial activity (MIC) E. coli after 24h (E. coli) [µM] | antimicrobial activity (MIC) E. coli after 48h (E. coli) [µM] | antimicrobial activity (MIC) S. aureus after 24h (S. aureus) [µM] | antimicrobial activity (MIC) S. aureus after 48h (S. aureus) [µM] | antimicrobial activities (in words) [1] | antimicrobial activity after 24 hours: MIC [2] [µM] |
| --- | --- | --- | --- | --- | --- | --- |
| PKKKRKVPPRKKRTVV [sample 19, PKKKRKVPPRKKRTVV] | 3.9 | 3.9 | 7.8 | 7.8 | – | – |
| RKKKRKVRKKKRKVRKKKRKV [sample 21] | 1.9 | 1.9 | 0.5 | 0.5 | – | – |
| LKRKLQR [sample 27, LKRKLQR] | 500.0 | >500 | 125.0 | 125.0 | – | – |
| PKKKRKVALGKLALGKL [sample 31, PKKKRKVALGKLALGKL] | 7.8 | 7.8 | 3.9 | 7.8 | – | – |
| CC(C)[C@H](NC(=O)[C@H](CCCCN)NC(=O)[C@H](CCCNC(=N)N)NC(=O)[C@H](CCCCN)NC(=O)[C@H](CCCCN)NC(=O)[C@H](CCCCN)NC(=O)[C@@H]1CCCN1)C(=O)O [sample 1, PKKKRKV] | 62.5 | >500 | 62.5 | 125.0 | – | – |
| PKKKRKVLPPLERLTL [sample 8, PKKKRKVLPPLERLTL] | 31.3 | 31.3 | 3.9 | 3.9 | – | – |
| RKKKRKVRKKKRKV-NH2 [sample 25, RKKKRKVRKKKRKV-CONH2] | 3.9 | 3.9 | 1.9 | 1.9 | – | – |
| LPPLERLTLPKKKRKV [sample 9, LPPLERLTLPKKKRKV] | 31.3 | 31.3 | 3.9 | 3.9 | – | – |
| LPPLERLTLRKKKRKV [sample 13, LPPLERLTLRKKKRKV] | 15.6 | 15.6 | 3.9 | 3.9 | – | – |
| PKKKRKVLPPLERLTLPKKKRKV [sample 11] | 3.9 | 3.9 | 1.9 | 1.9 | – | – |
| PRRRK-NH2 [sample 23, PRRRK] | 31.3 | 31.3 | 7.8 | 15.6 | – | – |
| LKRKLQRLKRKLQR [sample 30, LKRKLQRLKRKLQR] | 3.9 | 3.9 | 3.9 | 3.9 | – | – |
| LALKLAGLDI [compound 3, LALKLAGLDI, reference compound] | >500 | >500 | >500 | >500 | – | – |
| RKKKRKV-OH [sample 7, RKKKRKV] | 62.5 | 500.0 | 15.6 | 31.3 | – | – |
| RKKKRKVKRKKKR [sample 29, RKKKRKVKRKKKR] | 1.0 | 1.0 | 3.9 | 7.8 | particularly high antimicrobial activities | – |
| RIRKKLR [sample 3, RIRKKLR] | 62.5 | 62.5 | 62.5 | 62.5 | – | – |

| Compound | antimicrobial activity (MIC) E. coli after 24h (E. coli) [µM] | antimicrobial activity (MIC) E. coli after 48h (E. coli) [µM] | antimicrobial activity (MIC) S. aureus after 24h (S. aureus) [µM] | antimicrobial activity (MIC) S. aureus after 48h (S. aureus) [µM] | antimicrobial activities (in words) [1] | antimicrobial activity after 24 hours: MIC [2] [µM] |
| --- | --- | --- | --- | --- | --- | --- |
| PRRRK [sample 6, PRRRK] | >500 | >500 | 250.0 | 500.0 | – | – |
| LALKLAGLDIRKKKRKV [sample 15, LALKLAGLDIRKKKRKV] | 3.9 | 3.9 | 1.9 | 3.9 | high antimicrobial activities | – |
| PKKKRKVPKKKRKV [sample 16, PKKKRKVPKKKRKV] | – | – | – | – | – | 17.9 |
| PRRRKPRRRK [sample 18, PRRRKPRRRK] | 3.9 | 3.9 | 7.8 | 7.8 | – | – |
| RQARRNRRRRWR [sample 2, RQARRNRRRRWR] | – | – | – | – | particularly high antimicrobial activities | – |
| RKKKRKV-NH2 [sample 24, RKKKRKV-CONH2] | 3.9 | 15.6 | 1.0 | 1.0 | higher antimicrobial activities | – |
| RKKKRKVLPPLERLTL [sample 12, RKKKRKVLPPLERLTL] | 15.6 | 15.6 | 3.9 | 3.9 | – | – |
| RKKKRKVVKRKKKR [sample 28, RKKKRKVVKRKKKR] | 1.0 | 1.0 | 3.9 | 7.8 | particularly high antimicrobial activities | – |
| PPRKKRTVV [sample 4, PPRKKRTVV] | 250.0 | >500 | 125.0 | 125.0 | – | – |
| N=C(N)NCCC[C@H](NC(=O)[C@H](CCCNC(=N)N)NC(=O)[C@H](CCCCN)NC(=O)[C@@H](N)CCCNC(=N)N)C(=O)O [comparative sample 1, RKRR, reference compound] (H-RKRR-OH; N-terminus and C-terminus assumed) | >500 | >500 | >500 | >500 | – | – |
| RKKKRKVRKKKRKVRKKKRKVRKKKRKV [sample 22] | 1.9 | 1.9 | 1.0 | 1.0 | – | – |
| N=C(N)NCCC[C@H](NC(=O)[C@H](CCCNC(=N)N)NC(=O)[C@H](CCCNC(=N)N)NC(=O)[C@H](CCC(N)=O)NC(=O)[C@H](CCCNC(=N)N)NC(=O)[C@H](CCCNC(=N)N)NC(=O)[C@H](CCCCN)NC(=O)[C@H](CCCCN)NC(=O)[C@@H](N)CCCNC(=N)N)C(=O)O [sample 5, RKKRRQRRR] | – | – | – | – | particularly high antimicrobial activities | – |
| RQARRNRRRRWRLPPLERLTLD [sample 10] | – | – | – | – | high antimicrobial activities | – |
| LPPLERLTL [comparative sample 2, LPPLERLTL, reference compound] | >500 | >500 | >500 | >500 | – | – |
| PKKKRRV [sample 26, PKKKRRV] | 62.5 | 500.0 | 125.0 | 125.0 | – | – |
| MRKKKRKVRKKKRKV [sample 33, MRKKKRKVRKKKRKV] | 3.9 | 3.9 | 1.9 | 1.9 | – | – |
